42 compounds from ChEMBL document CHEMBL1201862, “PubChem BioAssay data set” (2004) can be followed below.

Some test systems named below: BT-549; PC-3; NCI/ADR-RES; T47D.
Holding throughout (test): NCI-60 cell line screen, 48 h

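Five concentrations, 48 hours, 96-well plates. The concentration for 50% growth inhibition is given as GI50.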 The source made the active and inactive calls. Rule as the data show it: active = GI50 up to about 1.1 µM and inactive = higher. Residues, ends and D or L forms follow the SMILES beside them. Groups on a side chain read outwards from the residue. *: point of attachment. Cbz = O=C(OCc1ccccc1)*; Boc = CC(C)(C)OC(=O)*

With `C[N+](C)(C)CCN[N+]1(C)CCCc2ccccc21` (configuration not stated), the GI50 with BT-549 is > 100 µM (inactive); in the assay on PC-3, > 100 µM (inactive); with NCI/ADR-RES, > 100 µM (inactive); in the assay with T47D, 36.5 µM (inactive).
Turning to `C=C(C)CN(CC#N)CC(=C)C`, the GI50 with BT-549, in the assay on PC-3, in the assay on NCI/ADR-RES and in the assay with T47D was > 100 µM (inactive) in each case.
Take `O=C(CN1C(=O)c2ccccc2C1=O)C(O)CN1C(=O)c2ccccc2C1=O` (configuration not stated): the GI50 is 48.1 µM (inactive) with BT-549, > 100 µM (inactive) in the assay on PC-3, > 100 µM (inactive) with NCI/ADR-RES and 93.5 µM (inactive) in the assay on T47D.
For the compound `COC1(OC)CC(CO)(CNc2nc(N)nc(Cl)c2/C=N\O)C1`, the GI50 in the assay with BT-549 was 25.3 µM (inactive); in the assay on PC-3, 55.5 µM (inactive); with NCI/ADR-RES it was 46 µM (inactive).
`O=C(CSC1=NC(=O)C2(NN1)c1ccccc1-c1ccccc12)NC(=S)Nc1ccccc1`: the GI50 in the assay with BT-549 is > 10 µM (inactive); in the assay on PC-3 it was > 10 µM (inactive); in the assay with NCI/ADR-RES, 7.76 µM (inactive); in the assay on T47D, 2.34 µM (inactive).
For the compound `CC(C)(C)/C(=N\Nc1nc2ccccc2[nH]1)c1ccccn1`, the GI50 in the assay with BT-549 was > 100 µM (inactive); in the assay with PC-3, 81.5 µM (inactive); in the assay on NCI/ADR-RES it was 65.3 µM (inactive); in the assay on T47D, 21 µM (inactive).
The matching figures for `COC(=O)N/N=C(\C)C(CN1CCOCC1)C(c1ccccc1)c1cc2ccccc2oc1=O` (configuration not stated): 68.7 µM (inactive), > 100 µM (inactive), 55.8 µM (inactive) and > 100 µM (inactive).
As to `Clc1cc(Cl)c2cc3cccc[n+]3cc2c1Cl`, the GI50 in the assay with BT-549 is 6.76 µM (inactive); with PC-3 it was 14 µM (inactive); in the assay with NCI/ADR-RES it was 18.3 µM (inactive); in the assay on T47D it was 7.64 µM (inactive).
In the case of `O=CNNC(=O)Nc1cccc2ccccc12`, the GI50 in the assay with NCI/ADR-RES and in the assay with T47D was > 100 µM (inactive) each time.
Regarding `CCOC(=O)C(C(=O)c1ccccc1C(=O)OC)=P(c1ccccc1)(c1ccccc1)c1ccccc1`, the GI50 in the assay on BT-549, in the assay with PC-3, in the assay on NCI/ADR-RES and with T47D was > 10 µM (inactive) in each case.
For the compound `N#C/C(=C\c1cn(Cc2ccccc2)c2ccccc12)c1nn(-c2ccccc2)c(N)c1C#N`, the GI50 was 22.3 µM (inactive) in the assay on BT-549, 8.22 µM (inactive) in the assay with PC-3, 17.4 µM (inactive) with NCI/ADR-RES and 1.33 µM (inactive) in the assay with T47D.
Regarding `S=C(/N=c1\sc(NCc2ccccc2)nc2sc3c(c12)CCN(N1CCc2c(sc4nc(NCc5ccccc5)s/c(=N\C(=S)NCc5ccccc5)c24)C1)C3)NCc1ccccc1`, the GI50 in the assay with BT-549 is 62.2 µM (inactive); in the assay with PC-3, 17 µM (inactive); with NCI/ADR-RES, 37.8 µM (inactive); in the assay on T47D it was 21.2 µM (inactive).
Take `CC1CCC(C(C)C)C(OC(=O)NCn2cc(-c3ccccc3)nn2)C1` (configuration not stated): the GI50 with BT-549, in the assay with PC-3 and in the assay with NCI/ADR-RES was > 100 µM (inactive) in each case.
In the case of `CCCCCCCC/C=C\CCCCCCC(F)C(=O)O` (configuration not stated), the GI50 in the assay on PC-3, in the assay with NCI/ADR-RES and in the assay on T47D was > 12.5 µM (inactive) each time.
Regarding `C[C@]12CC[C@@H]3c4ccc(O)cc4CC[C@H]3[C@@H]1CC[C@@H]2OC(=O)CCc1ccccc1`, the GI50 in the assay with BT-549 is 18.5 µM (inactive); with PC-3, 18.3 µM (inactive); in the assay on NCI/ADR-RES, 16.6 µM (inactive); in the assay on T47D, 17.7 µM (inactive).
For the compound `CC(=O)OCC1(C)C(O)CCC2(C)C1CCC1CC3CC12CCC3(O)CO` (configuration not stated), the GI50 in the assay with BT-549 was > 86.3 µM (inactive); in the assay on PC-3 it was > 91 µM (inactive); in the assay on NCI/ADR-RES it was 37.7 µM (inactive); in the assay with T47D, > 100 µM (inactive).
As for `O=C(Nc1nc(C23CC4CC(CC(C4)C2)C3)cs1)c1c(O)c2ccccc2[nH]c1=O`, the GI50 with BT-549, in the assay with PC-3 and in the assay on NCI/ADR-RES was > 100 µM (inactive) each time.
With `C[C@]12C(=O)OC[C@H](c3ccccc3)N1C(=O)N(Cc1ccccc1)[C@@H]2CO`, the GI50 with BT-549, with PC-3 and in the assay with NCI/ADR-RES was > 100 µM (inactive) in each case.
In the case of `Cc1c(C(=O)c2ccc(N)c3ccccc23)c2ccccc2n1CCN1CCOCC1`, the GI50 in the assay on BT-549 was 27.4 µM (inactive); in the assay with PC-3, 27.5 µM (inactive); with NCI/ADR-RES, 23.4 µM (inactive); in the assay on T47D it was 31.5 µM (inactive).
As for `Nc1ncnc2c1ncn2C1C=CC(COS(N)(=O)=O)C1` (configuration not stated), the GI50 in the assay on PC-3 is 12 µM (inactive); in the assay with NCI/ADR-RES, 66.2 µM (inactive); with T47D, 8.81 µM (inactive).
For the compound `Nc1ncnc2ccc(Sc3ccc4ncnc(N)c4c3)cc12`, the GI50 in the assay on BT-549, with PC-3, in the assay on NCI/ADR-RES and in the assay with T47D was > 100 µM (inactive) each time.
`CCc1cc2c(oc3cc(C)ccc32)c(=O)n1C`: the GI50 in the assay on BT-549, with PC-3 and in the assay on T47D was > 10 µM (inactive) throughout.
On to `COc1ccc2c(O)c(S(=O)(=O)c3ccc(C)cc3)c(=O)oc2c1OC`, for which the GI50 with BT-549, in the assay on PC-3, in the assay with NCI/ADR-RES and in the assay on T47D was > 100 µM (inactive) in each case.
As to `CC(=O)Nc1ccc2c(c1)[nH]c(=O)c1cc(Cl)ccc12`, the GI50 with BT-549 was 25.8 µM (inactive); in the assay with NCI/ADR-RES, 48.8 µM (inactive); with T47D it was 57.9 µM (inactive).
Consider `COc1nc(O)nc2c1C(c1ccc([N+](=O)[O-])cc1)c1c(OC)nc(O)nc1O2`, for which the GI50 with BT-549, with PC-3 and in the assay on NCI/ADR-RES was > 100 µM (inactive) each time.
For `NC(=O)CN1CC(C2=C(O)CN(CC(N)=O)C2=O)=CC1=O`, the GI50 with BT-549, in the assay on PC-3, in the assay on NCI/ADR-RES and with T47D was > 100 µM (inactive) in each case.
As for `CC(C)NCCC(O)c1cc2ccccc2o1` (configuration not stated), the GI50 in the assay on BT-549, in the assay on PC-3, in the assay with NCI/ADR-RES and with T47D was > 100 µM (inactive) each time.
Turning to `COc1ncnc2c1cnn2Cc1cn(COCC(O)CO)nn1` (configuration not stated), the GI50 in the assay with BT-549, in the assay with PC-3, with NCI/ADR-RES and in the assay with T47D was > 100 µM (inactive) each time.
As to `OC(c1cc2ccc(C(F)(F)F)cc2c2cc(C(F)(F)F)ccc12)C1CCCCN1` (configuration not stated), the GI50 was 1.92 µM (inactive) with BT-549, 1.58 µM (inactive) in the assay on PC-3, 1.82 µM (inactive) in the assay with NCI/ADR-RES and 1.87 µM (inactive) in the assay on T47D.
On the same counts, the results for `CCOC(=O)C1C(=O)CC(C)(O)C(C(=O)OCC)C1c1ccc(N(C)C)cc1` (configuration not stated) are > 100 µM (inactive), > 100 µM (inactive), > 100 µM (inactive) and > 100 µM (inactive).
As to `COc1c(N2CCCCC2)c2c(=O)c3ccccc3oc2c2c3ccccc3n(C)c12`, the GI50 with BT-549 is 98.6 µM (inactive); with PC-3 it was > 100 µM (inactive); with NCI/ADR-RES, > 100 µM (inactive).
In the case of `COc1ccc(N2C(=O)/C(=C\c3cccc(Oc4ccccc4)c3)S(=O)(=O)C2c2ccccc2)cc1` (configuration not stated), the GI50 with BT-549 is 25.6 µM (inactive); in the assay on PC-3, 56 µM (inactive); in the assay on NCI/ADR-RES it was 16.2 µM (inactive); in the assay on T47D, 35.6 µM (inactive).
Regarding `COC(=O)/C=C(/C(=O)OC)c1c(C)cc2c(C)cc(C)cc(C)c1-2`, the GI50 is 15 µM (inactive) in the assay on BT-549, 19 µM (inactive) in the assay on PC-3, 9.33 µM (inactive) in the assay on NCI/ADR-RES and 44.1 µM (inactive) in the assay on T47D.
In the case of `Cc1nc2c(=S)n(C)ncc2[nH]1`, the GI50 in the assay with BT-549, in the assay on PC-3, in the assay on NCI/ADR-RES and with T47D was > 100 µM (inactive) throughout.
As for `CC(C)CC1C(=O)NCCC(NC(=O)C(N)Cc2ccc(O)cc2)C(=O)NC(Cc2ccccc2)C(=O)NC(Cc2ccccc2)NC1=O` (configuration not stated), the GI50 in the assay on PC-3, in the assay with NCI/ADR-RES and with T47D was > 100 µM (inactive) throughout.
For the compound `CCC1c2[nH]c3ccccc3c2C[C@H]2C(=O)NC(Cc3ccccc3)C(=O)N12` (some centres not stated), the GI50 is 22.4 µM (inactive) in the assay on BT-549, 20.8 µM (inactive) in the assay on PC-3, 29.8 µM (inactive) in the assay with NCI/ADR-RES and 22 µM (inactive) in the assay on T47D.
The matching figures for `OCc1ccccc1O[C@H]1O[C@H](CO)[C@@H](O)[C@H](O)[C@H]1O`: > 100 µM (inactive), > 100 µM (inactive), > 100 µM (inactive) and > 100 µM (inactive).
For `CCC1(O)C(=O)OCc2c1cc1n(c2=O)Cc2cc3cc(N)ccc3nc2-1` (configuration not stated), the GI50 was < 0.01 µM (active) in the assay on BT-549, 0.0702 µM (active) in the assay with PC-3, < 0.01 µM (active) in the assay with NCI/ADR-RES and < 0.01 µM (active) in the assay with T47D.
Take `Cc1cc(C)c2c(O)cc(-c3cccc(Cl)c3)nc2n1`: the GI50 was 1.59 µM (inactive) with BT-549, 0.0282 µM (active) with PC-3 and 0.254 µM (active) with NCI/ADR-RES.
Take `CSc1ccc2c(c1)N(CCCN(C)C)c1ccccc1S2`: the GI50 with BT-549 was 15.4 µM (inactive); in the assay with PC-3, 11.1 µM (inactive); with NCI/ADR-RES, 12.1 µM (inactive); with T47D it was 10.4 µM (inactive).
As for `CC(C)(C)OC(=O)NC(CCCCNC(=O)CNC(=O)OCc1ccccc1)C(=O)NC(CCCCNC(=O)CNC(=O)OCc1ccccc1)C(=O)NC(CCCCNC(=O)CNC(=O)OCc1ccccc1)C(=O)NC(CCCCNC(=O)CNC(=O)OCc1ccccc1)C(=O)O` (configuration not stated) (Boc-K([Gly-Cbz])K([Gly-Cbz])K([Gly-Cbz])K([Gly-Cbz])-OH; configuration not given here), the GI50 with BT-549, with PC-3 and in the assay on T47D was > 100 µM (inactive) throughout.
Consider `CS(=O)(=O)c1ccc(C2=C(c3ccccc3)C(=O)OC2)cc1` [ROFECOXIB], for which the GI50 in the assay with PC-3, with NCI/ADR-RES and in the assay with T47D was > 100 µM (inactive) in each case.
